Data: ChEMBL document CHEMBL1140480, “Amino(methyl) pyrrolidines as novel scaffolds for factor Xa inhibitors” (Bioorg Med Chem Lett, 2007)
“And” between values parts separate entries of the source, which are not always exact repeats. Equal entries are not always repeated.

Experiments:
Plasma = experiment: Anticoagulant activity in human plasma assessed as concentration required to double prothrombin time; format: functional
Coagulation factor X = Coagulation factor X (Homo sapiens, UniProt P00742); experiment: Inhibition of F10a
Coagulation factor X, sequence (P00742 41-179 limits assumed): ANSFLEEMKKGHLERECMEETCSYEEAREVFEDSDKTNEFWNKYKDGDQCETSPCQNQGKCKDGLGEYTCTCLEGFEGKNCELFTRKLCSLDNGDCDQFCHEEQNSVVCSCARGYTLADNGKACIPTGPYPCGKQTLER
Coagulation factor X, sequence (P00742 235-488 limits assumed): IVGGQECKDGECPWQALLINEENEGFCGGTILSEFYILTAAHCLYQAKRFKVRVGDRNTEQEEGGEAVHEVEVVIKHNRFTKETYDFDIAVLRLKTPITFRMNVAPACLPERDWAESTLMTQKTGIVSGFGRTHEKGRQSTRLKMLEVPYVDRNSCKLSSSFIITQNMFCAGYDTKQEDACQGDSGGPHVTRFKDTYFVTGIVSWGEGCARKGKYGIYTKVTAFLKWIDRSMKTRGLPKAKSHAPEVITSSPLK

Cytochrome P450 2C19 = Cytochrome P450 2C19 (Homo sapiens, UniProt P33261); experiment: Inhibition of CYP2C19; format: ADME
Cytochrome P450 2C19, sequence (P33261 whole entry): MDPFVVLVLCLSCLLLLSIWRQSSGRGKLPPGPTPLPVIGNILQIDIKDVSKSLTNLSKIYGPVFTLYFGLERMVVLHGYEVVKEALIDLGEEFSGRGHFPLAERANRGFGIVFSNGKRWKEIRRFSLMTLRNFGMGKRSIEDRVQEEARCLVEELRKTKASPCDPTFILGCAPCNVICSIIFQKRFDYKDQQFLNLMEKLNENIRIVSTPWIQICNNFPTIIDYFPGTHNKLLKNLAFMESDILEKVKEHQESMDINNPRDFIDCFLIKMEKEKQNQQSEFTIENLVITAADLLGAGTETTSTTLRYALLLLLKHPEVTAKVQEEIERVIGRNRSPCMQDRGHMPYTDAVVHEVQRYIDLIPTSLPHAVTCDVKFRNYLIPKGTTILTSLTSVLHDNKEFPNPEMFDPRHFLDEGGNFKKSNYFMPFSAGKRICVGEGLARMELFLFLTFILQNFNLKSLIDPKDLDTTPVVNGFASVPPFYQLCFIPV

[1] = target: Prothrombin (Homo sapiens) (UniProt P00734); experiment: Inhibition of thrombin
Trypsin (Homo sapiens) = Trypsin (Homo sapiens) (UniProt P07477+P07478+P35030); experiment: Inhibition of trypsin; format: protein assay
[2] = target: Coagulation factor IX (Homo sapiens) (UniProt P00740); experiment: Inhibition of F9a
Coagulation factor IX (Homo sapiens), sequence (P00740 47-191 limits assumed): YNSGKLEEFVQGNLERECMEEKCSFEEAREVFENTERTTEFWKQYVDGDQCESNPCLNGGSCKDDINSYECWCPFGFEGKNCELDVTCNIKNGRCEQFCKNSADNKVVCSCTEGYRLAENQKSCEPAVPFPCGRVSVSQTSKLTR
Coagulation factor IX (Homo sapiens), sequence (P00740 227-461 limits assumed): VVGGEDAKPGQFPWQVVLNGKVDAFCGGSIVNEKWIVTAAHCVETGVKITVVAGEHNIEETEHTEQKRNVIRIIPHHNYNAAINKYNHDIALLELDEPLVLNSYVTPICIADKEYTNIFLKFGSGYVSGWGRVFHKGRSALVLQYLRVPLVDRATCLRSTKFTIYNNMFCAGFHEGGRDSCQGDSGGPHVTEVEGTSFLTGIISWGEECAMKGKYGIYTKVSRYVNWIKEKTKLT

[3] = target: T1, Coagulation factor VII (Homo sapiens) (UniProt P08709); experiment: Inhibition of F7a
T1 sequence (whole entry): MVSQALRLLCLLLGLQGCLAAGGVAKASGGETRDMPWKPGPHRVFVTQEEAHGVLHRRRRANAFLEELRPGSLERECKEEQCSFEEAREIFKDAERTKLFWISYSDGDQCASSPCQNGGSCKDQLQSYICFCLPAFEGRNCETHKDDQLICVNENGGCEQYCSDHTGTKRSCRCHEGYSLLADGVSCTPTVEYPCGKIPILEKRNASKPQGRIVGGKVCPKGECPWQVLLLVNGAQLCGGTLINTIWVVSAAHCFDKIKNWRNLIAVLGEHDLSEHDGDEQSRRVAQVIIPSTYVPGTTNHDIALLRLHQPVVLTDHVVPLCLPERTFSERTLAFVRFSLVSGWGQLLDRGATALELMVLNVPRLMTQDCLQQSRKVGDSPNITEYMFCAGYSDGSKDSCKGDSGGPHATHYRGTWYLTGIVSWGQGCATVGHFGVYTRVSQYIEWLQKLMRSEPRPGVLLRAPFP

[4] = target: Plasma kallikrein (Homo sapiens) (UniProt P03952); experiment: Inhibition of plasma kallikrein; format: cell-free
Plasma kallikrein (Homo sapiens), sequence (P03952 20-390 limits assumed): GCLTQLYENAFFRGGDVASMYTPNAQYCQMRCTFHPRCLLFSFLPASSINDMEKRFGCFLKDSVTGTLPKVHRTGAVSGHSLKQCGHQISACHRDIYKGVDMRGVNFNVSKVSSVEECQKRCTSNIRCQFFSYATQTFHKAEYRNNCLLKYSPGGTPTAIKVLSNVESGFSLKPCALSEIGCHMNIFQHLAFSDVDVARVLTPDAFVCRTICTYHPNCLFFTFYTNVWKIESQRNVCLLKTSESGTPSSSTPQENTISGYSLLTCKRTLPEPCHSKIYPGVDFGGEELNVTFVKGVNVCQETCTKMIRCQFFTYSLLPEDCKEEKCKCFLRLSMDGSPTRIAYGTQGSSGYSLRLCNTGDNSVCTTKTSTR
Plasma kallikrein (Homo sapiens), sequence (P03952 391-638 limits assumed): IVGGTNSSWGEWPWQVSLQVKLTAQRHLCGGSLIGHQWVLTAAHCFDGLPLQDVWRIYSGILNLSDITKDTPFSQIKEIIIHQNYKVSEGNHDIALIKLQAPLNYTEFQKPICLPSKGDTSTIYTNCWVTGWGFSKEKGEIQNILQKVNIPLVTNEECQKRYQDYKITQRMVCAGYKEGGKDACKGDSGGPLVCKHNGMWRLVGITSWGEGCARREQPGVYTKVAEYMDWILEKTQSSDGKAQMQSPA

[5] = Permeability from apical to basolateral side of the Caco-2 cell membrane at pH 6.5; format: ADME, cell-based; conditions: human, Caco-2, pH 6.5; read-out: permeability
Cytochrome P450 3A4 = Cytochrome P450 3A4 (Homo sapiens, UniProt P08684); experiment: Inhibition of CYP3A4; format: ADME
Cytochrome P450 3A4, sequence (P08684 whole entry): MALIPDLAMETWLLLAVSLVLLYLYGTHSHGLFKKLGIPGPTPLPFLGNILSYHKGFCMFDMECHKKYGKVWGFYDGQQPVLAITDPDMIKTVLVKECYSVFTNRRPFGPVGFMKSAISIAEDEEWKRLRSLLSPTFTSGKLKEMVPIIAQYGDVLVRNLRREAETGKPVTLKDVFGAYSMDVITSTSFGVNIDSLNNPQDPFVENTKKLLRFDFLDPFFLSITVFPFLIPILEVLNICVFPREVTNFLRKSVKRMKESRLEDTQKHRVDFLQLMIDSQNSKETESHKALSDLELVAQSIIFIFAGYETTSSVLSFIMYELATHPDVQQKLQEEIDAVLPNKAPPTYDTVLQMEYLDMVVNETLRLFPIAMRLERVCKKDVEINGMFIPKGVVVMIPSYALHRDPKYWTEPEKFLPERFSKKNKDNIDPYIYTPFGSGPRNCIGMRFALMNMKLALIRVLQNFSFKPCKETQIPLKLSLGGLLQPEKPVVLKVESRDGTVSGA

Cytochrome P450 2D6 = Cytochrome P450 2D6 (Homo sapiens, UniProt P10635); experiment: Inhibition of CYP2D6; format: ADME
Cytochrome P450 2D6, sequence (P10635 whole entry): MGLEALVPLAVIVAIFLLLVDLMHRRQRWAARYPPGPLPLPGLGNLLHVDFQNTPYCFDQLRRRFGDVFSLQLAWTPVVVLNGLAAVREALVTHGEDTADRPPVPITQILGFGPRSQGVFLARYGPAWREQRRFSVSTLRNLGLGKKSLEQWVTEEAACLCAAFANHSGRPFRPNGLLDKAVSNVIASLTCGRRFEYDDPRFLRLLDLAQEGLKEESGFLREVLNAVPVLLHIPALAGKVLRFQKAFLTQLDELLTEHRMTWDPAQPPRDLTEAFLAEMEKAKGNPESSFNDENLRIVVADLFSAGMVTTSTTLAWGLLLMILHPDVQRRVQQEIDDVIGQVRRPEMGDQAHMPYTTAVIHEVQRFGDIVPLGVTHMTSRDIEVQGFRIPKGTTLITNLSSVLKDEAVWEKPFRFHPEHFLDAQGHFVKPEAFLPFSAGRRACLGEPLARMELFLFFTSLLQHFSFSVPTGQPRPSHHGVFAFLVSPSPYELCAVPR

Cytochrome P450 2C9 = Cytochrome P450 2C9 (Homo sapiens, UniProt P11712); experiment: Inhibition of CYP2C9; format: ADME
Cytochrome P450 2C9, sequence (P11712 whole entry): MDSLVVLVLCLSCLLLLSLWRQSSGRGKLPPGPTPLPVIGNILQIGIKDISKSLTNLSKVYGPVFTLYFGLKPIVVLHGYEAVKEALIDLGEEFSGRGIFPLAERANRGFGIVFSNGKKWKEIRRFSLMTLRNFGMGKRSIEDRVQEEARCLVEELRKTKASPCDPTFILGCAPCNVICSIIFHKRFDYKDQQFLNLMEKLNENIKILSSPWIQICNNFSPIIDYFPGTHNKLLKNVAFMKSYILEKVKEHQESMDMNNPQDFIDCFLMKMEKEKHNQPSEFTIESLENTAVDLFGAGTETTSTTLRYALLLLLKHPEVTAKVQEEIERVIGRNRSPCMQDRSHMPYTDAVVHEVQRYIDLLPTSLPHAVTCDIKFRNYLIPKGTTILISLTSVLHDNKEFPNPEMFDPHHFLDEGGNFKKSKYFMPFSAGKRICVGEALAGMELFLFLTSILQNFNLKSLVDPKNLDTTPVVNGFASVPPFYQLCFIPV

Cytochrome P450 1A2 = target: T2, Cytochrome P450 1A2 (Homo sapiens, UniProt P05177); experiment: Inhibition of CYP1A2; format: ADME
T2 sequence (P05177 whole entry): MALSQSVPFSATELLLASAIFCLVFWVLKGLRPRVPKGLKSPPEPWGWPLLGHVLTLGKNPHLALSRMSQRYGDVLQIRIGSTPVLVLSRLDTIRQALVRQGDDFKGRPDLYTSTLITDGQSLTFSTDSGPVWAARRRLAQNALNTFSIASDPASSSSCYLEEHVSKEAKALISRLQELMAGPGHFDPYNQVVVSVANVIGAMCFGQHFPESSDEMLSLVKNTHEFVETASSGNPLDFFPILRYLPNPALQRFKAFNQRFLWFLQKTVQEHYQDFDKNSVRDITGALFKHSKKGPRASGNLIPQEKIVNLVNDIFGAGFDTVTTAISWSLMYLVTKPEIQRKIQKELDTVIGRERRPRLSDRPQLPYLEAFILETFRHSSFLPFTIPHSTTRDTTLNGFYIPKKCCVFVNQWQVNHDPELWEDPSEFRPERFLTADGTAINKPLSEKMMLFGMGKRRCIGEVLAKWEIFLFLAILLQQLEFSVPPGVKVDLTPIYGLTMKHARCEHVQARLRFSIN

SMILES	IC50 (Coagulation factor X) [nM]	Activity (Plasma) [µM]	also measured
O=C(C1CCN(c2ccncc2)CC1)N1CC[C@@H](CNS(=O)(=O)/C=C/c2ccc(Cl)s2)C1	–	1.7	–
O=C(C1CCN(c2ccncc2)CC1)N1CCC(CNS(=O)(=O)/C=C/c2cccc(Cl)c2)C1 (racemic)	4300	–	–
O=C(C1CCN(c2ccncc2)CC1)N1CCC(CNS(=O)(=O)/C=C/c2ccc(Cl)cc2)C1 (racemic)	493	32	–
NS(=O)(=O)c1ccccc1-c1ccc(C(=O)N2CC[C@@H](CNS(=O)(=O)/C=C/c3ccc(Cl)s3)C2)cc1	1900	–	–
O=C(C1CCN(c2ccncc2)CC1)N1CCC(CNS(=O)(=O)c2cc3ccc(Cl)cc3s2)C1 (racemic)	255	45	–
O=C(C1CCN(c2ccncc2)CC1)N1CC[C@H](CNS(=O)(=O)/C=C/c2ccc(Cl)s2)C1	–	13	–
O=C(C(=O)N1CCC[C@H]1CN1CCCC1)N1CC[C@@H](CNS(=O)(=O)/C=C/c2ccc(Cl)s2)C1	436	–	–
Cc1nccc(N2CCC(C(=O)N3CC[C@H](CNS(=O)(=O)/C=C/c4ccc(Cl)s4)C3)CC2)n1	718	–	–
O=C(C1CCN(c2ccncc2)CC1)N1CCC(CNS(=O)(=O)c2ccc3ccccc3c2)C1 (racemic)	1100	–	–
O=C(c1ccc(-n2ccnc2)cc1)N1CC[C@H](CNS(=O)(=O)/C=C/c2ccc(Cl)s2)C1	1300	–	–

Further lines, with some results ahead:

IC50 (Coagulation factor X) [nM]	SMILES	Activity (Plasma) [µM]	also measured
40	O=C(N1CC[C@H](CNS(=O)(=O)c2ccc(-c3ccc(Cl)s3)s2)C1)N1CCC[C@H]1CN1CCCC1	13	–
247	O=C(C1CCN(c2ccncc2)CC1)N1CCC(CNS(=O)(=O)c2ccc3cc(Cl)ccc3c2)C1 (racemic)	40	–
22	O=C(C1CCN(c2ccncc2)CC1)N1CC[C@@H](CNS(=O)(=O)/C=C/c2ccc(Br)s2)C1	5	–
230	Cc1nccc(N2CCC(C(=O)N3CC[C@@H](CNS(=O)(=O)/C=C/c4ccc(Cl)s4)C3)CC2)n1	28	–
86	O=C(C1CCN(c2ccncc2)CC1)N1CCC(CNS(=O)(=O)/C=C/c2ccc(Br)s2)C1 (racemic)	8.7	–
61	Cc1nccc(N2CCC(C(=O)N3CC[C@@H](CNS(=O)(=O)c4ccc(-c5ccc(Cl)s5)s4)C3)CC2)n1	50	–
130	O=C(N1CCCC1)N1CC[C@H](CNS(=O)(=O)c2ccc(-c3ccc(Cl)s3)s2)C1	130	–
18	O=C(C1CCN(c2ccncc2)CC1)N1CC[C@@H](CNS(=O)(=O)c2ccc(-c3ccc(Cl)s3)s2)C1	6.8	IC50 (Cytochrome P450 2C19): 14100 nM; Activity [1]: > 30 µM; Activity (Trypsin (Homo sapiens)): > 30 µM; Activity [2]: > 30 µM; Activity [3]: > 30 µM; Activity [4]: > 30 µM; Papp A→B [5]: < 1.5 ×10⁻⁶ cm/s; IC50 (Cytochrome P450 3A4): 2330 nM and 1000 nM; IC50 (Cytochrome P450 2D6): 7970 nM; IC50 (Cytochrome P450 2C9): 1470 nM; IC50 (Cytochrome P450 1A2): > 20000 nM
70	O=C(C(=O)N1CCC[C@H]1CN1CCCC1)N1CC[C@H](CNS(=O)(=O)/C=C/c2ccc(Cl)s2)C1	8	–
